Measured values published in patent US20250127716A1, “INHALED IMATINIB FOR TREATMENT OF PULMONARY HYPERTENSION” (JUSTUS-LIEBIG-UNIVERSITAET GIESSEN, priority 2022, published 2025).
“Also recorded” adds a separate entry of the source. Where a name gives a salt, the structure may show the parent alone. Each block holds one molecule with its values, some of them ahead of it.

What was measured:
[1] = Formulation of stable concentrated imatinib solutions in different solvents (Examples 1-4); details: room temperature, one hour
PAH-patients = details: oral, cited from earlier work
PAH patients = details: oral; phase II, 59 patients; cited from earlier work
[2] = cited from earlier work
[3] = In vitro nebulization feasibility, Medspray wet aerosol inhaler single nozzle unit (Example 5); format: physicochemical; details: Medspray nozzle pore size 1.9 μm
Protocol: In an in vitro nebulization study, the feasibility to nebulize different imatinib mesylate solutions by the Medspray™ wet aerosol inhaler was evaluated. A 1 ml syringe was filled with the formulation to be tested, a single nozzle unit of Medspray™ wet aerosol inhaler was then fixed on the syringe by a luer adapter. The nozzle pore size was 1.9 μm. The aerosol was produced by pressing the piston of the syringe manually, thereby forcing the solution through the nozzle pores. […] When using ethanol 10% (v/v) or glycerol 1% (v/v), solutions with a concentration of 240 mg/ml were nebulizable; a mixture of ethanol 10% (v/v) and glycerol 1% (v/v) further increased the maximum imatinib concentration of the solution to 250 mg/ml capable of being nebulized.

[4] = 24-week trial, 202 PAH-patients

imatinib concentration of stable solution that could be formulated ([1]; a. dest, NaCl 0.9%, citrate buffer 5%, urea 5%, ethanol 10%, glycerol 1%): ≤ 5 mg/mL
SMILES: Cc1ccc(NC(=O)c2ccc(CN3CCN(C)CC3)cc2)cc1Nc1nccc(-c2cccnc2)n1 [Imatinib free base, 4-[(4-methylpiperazin-1-yl)methyl]-N-(4-methyl-3-{[4-(pyridin-3-yl)pyrimidin-2-yl]amino}phenyl)benzamide]

stability of resulting solutions ([1]; higher ionic strength solvents of Example 3): not stable
concentration of stable imatinib mesylate solution that could be formulated ([1]; higher ionic strength solvents: NaCl 0.9%, HCl/NaOH, citrate, HEPES, trometamol, PBS buffer): < 50000 µg/mL
concentration of stable imatinib mesylate solution that could be formulated ([1]; low ionic strength solvents of Example 4 (a. dest, ethanol, urea, glycerol, mannitol, glycols, ectoin)): up to 500 mg/ml
maximum concentration capable of being nebulized ([3]; solvent a. dest): 210 mg/mL
maximum imatinib concentration capable of being nebulized ([3]; solvent ethanol 10% (v/v) and glycerol 1% (v/v)): 250 mg/mL
concentration nebulizable ([3]; solvent ethanol 10% (v/v)): 240000 µg/mL
concentration nebulizable ([3]; solvent glycerol 1% (v/v)): 240000 µg/mL
SMILES: Cc1ccc(NC(=O)c2ccc(CN3CCN(C)CC3)cc2)cc1Nc1nccc(-c2cccnc2)n1 [Imatinib mesylate]
6-minute walk distance (primary outcome) (PAH-patients; [4]): significantly improving; also recorded: significantly improved
pulmonary vascular resistance (PAH-patients; [4]): significantly improved
change from baseline in the 6-minute-walk distance (primary endpoint) (PAH patients): not meeting the primary endpoint
pulmonary hemodynamics (secondary endpoint) (PAH patients): significantly improved
inter-subject variation in pharmacokinetics ([2]; in vivo): high
bioavailability ([2]; oral): almost complete

SMILES: Cc1ccc(NC(=O)c2ccc(CN3CCN(C)CC3)cc2)cc1Nc1nccc(-c2cccnc2)n1 [imatinib, 4-[(4-methylpiperazin-1-yl)methyl]-N-(4-methyl-3-{[4-(pyridin-3-yl)pyrimidin-2-yl]amino}phenyl)benzamide]
adverse events, side effects and discontinuation (PAH-patients; study and open-label extension phase): severe adverse events, significant side effects, and a high discontinuation rate
